Converted amounts (≈) assume the structure as drawn. The source made the active and inactive calls. No cut-off for these calls is given here.
Legend:
Type in all cases: functional
U-251 = test: Cytotoxicity against human U251 cells after 24 hrs by SRB assay; details: for EC50: U-251, 24 h, read-out: ED50 (the source's name)
A549 = test: Cytotoxicity against human A549 cells after 24 hrs by SRB assay; details: A549, 24 h, read-out: ED50 (the source's name)
MCF7 = test: Cytotoxicity against human MCF7 cells after 24 hrs by SRB assay; details: MCF7, 24 h, read-out: ED50 (the source's name)
RPMI = test: (§1) Cytotoxicity against human RPMI cells after 24 hrs by SRB assay
HT-29 = test: Cytotoxicity against human HT-29 cells after 24 hrs by SRB assay; details: HT-29, 24 h, read-out: ED50 (the source's name)
[1] = as §1; details: read-out: ED50 (the source's name)

Compound	ED50 (U-251)	EC50 (A549) [µg/mL]	EC50 (MCF7) [µg/mL]	ED50 (RPMI)	EC50 (HT-29) [µg/mL]	EC50 (U-251) [µg/mL]	EC50 [1] [µg/mL]
C[C@@H]1O[C@@H](O[C@H]2C[C@](O)(C(=O)CBr)Cc3c(O)c4c(c(O)c32)C(=O)c2ccccc2C4=O)[C@H](F)[C@H](O)[C@@H]1O	inactive	0.6 (≈ 1.01 µM)	0.4 (≈ 0.672 µM)	inactive	–	–	–
C[C@@H]1O[C@@H](O[C@H]2C[C@](O)(C(=O)CO)Cc3c(O)c4c(c(O)c32)C(=O)c2ccccc2C4=O)[C@H](F)[C@H](O)[C@@H]1O	–	0.008 (≈ 0.015 µM)	0.02 (≈ 0.0376 µM)	–	> 0.001	0.02 (≈ 0.0376 µM)	0.02 (≈ 0.0376 µM)
CC(=O)[C@]1(O)Cc2c(O)c3c(c(O)c2[C@@H](O[C@@H]2O[C@@H](C)[C@@H](O)[C@@H](O)[C@H]2F)C1)C(=O)c1ccccc1C3=O	–	0.008 (≈ 0.0155 µM)	0.03 (≈ 0.0581 µM)	–	–	0.04 (≈ 0.0774 µM)	0.03 (≈ 0.0581 µM)
CC(=O)O[C@H]1[C@@H](F)[C@H](O[C@H]2C[C@](O)(C(C)=O)Cc3c(O)c4c(c(O)c32)C(=O)c2ccccc2C4=O)O[C@@H](C)[C@H]1OC(C)=O	–	0.07 (≈ 0.117 µM)	0.06 (≈ 0.0999 µM)	–	0.001 (≈ 0.00167 µM)	0.1 (≈ 0.167 µM)	0.05 (≈ 0.0833 µM)
COc1cccc2c1C(=O)c1c(O)c3c(c(O)c1C2=O)C[C@@](O)(C(=O)CO)C[C@@H]3O[C@H]1C[C@H](N)[C@H](O)[C@H](C)O1 [DOXORUBICIN]	–	0.03 (≈ 0.0552 µM)	0.03 (≈ 0.0552 µM)	–	–	0.02 (≈ 0.0368 µM)	0.02 (≈ 0.0368 µM)
